≈ marks a conversion by molar mass, not a printed value.

Data set [1] is described as follows: in vivo. The following applies: Wistar, rat, po, 10 mg/kg.
Data set [2] in a line: physchem. The following applies: buffer, pH 7.4.
A short description of data set [3]: in vivo. The following applies: Wistar, rat, po, 10 mg/kg. The source holds these as a separate data set.
The nature of data set [4]: in vivo. Particulars: Wistar, rat, iv, 3 mg/kg.
Data set [5] is described as follows: in vivo. Particulars: Wistar, rat, iv, 3 mg/kg. This is another data set of the same source.
Data set [6] is described as follows: in vivo. The following applies: Wistar, rat, brain/plasma, po, 10 mg/kg.
The nature of data set [7]: physchem. Particulars: buffer, pH 7.4. This is another data set of the same source.
Data set [8] can be described thus: in vivo. Particulars: Wistar, rat, po, 10 mg/kg. This is another data set of the same source.
Data set [9] can be described thus: in vivo. Particulars: Wistar, rat, iv, 3 mg/kg. The source holds these as a separate data set.
Data set [10] is described as follows: in vivo. The following applies: Wistar, rat, po, 10 mg/kg. The source holds these as a separate data set.
A short description of data set [11]: in vivo. Particulars: Wistar, rat, po, 10 mg/kg. This is another data set of the same source.

As usually defined, the bioavailability is the share of a dose that reaches the circulation, judged against a reference dose that is usually intravenous. Low readings indicate poor availability, high ones good availability. A word on the logD: it is lipophilicity at a set pH, counting ionised and neutral species. Lower therefore signals a more hydrophilic compound. By Cmax is commonly meant the maximum level reached in the sampled fluid or tissue. As usually defined, the AUC(0-t) is exposure summed from dosing to a finite time, without extrapolation to infinity. A low value points to less exposure. What is called clearance is the volume of plasma or blood freed of the substance per unit of time. Usually Kp stands for the ratio of the level in a tissue or fluid to that in plasma or blood. A word on the solubility: it is the dissolved amount per volume that the medium holds. A lower solubility goes with a poorly soluble substance. Broadly, the half-life is the time in which the quantity being followed falls by half. The Tmax is the time at which the peak concentration occurs. `O=C1c2nc3cccc(C(F)(F)F)c3n2CCN1CC1CCC1` displayed a bioavailability in “in vivo [1]” of 67%. The same molecule had a logD in the data set “physchem [2]” of 3.09. For the same molecule, the Cmax in the data set “in vivo [3]” turned out to be 1360 ng/mL. This molecule displayed an AUC(0-t) at 2 h in “in vivo [4]” of 833 ng·h/mL. For the same molecule, the clearance in “in vivo [5]” was determined as 60 mL/min/kg. The Kp in “in vivo [6]” came to 1.02. This molecule also yielded a solubility in “physchem [7]” of 43 µg/mL (≈ 133 µM). The molecule also gave an AUC(0-t) at 5 h in the data set “in vivo [8]” of 1820 ng·h/mL. For the same molecule, the values for the half-life in the data set “in vivo [9]” and in “in vivo [11]” were 15.6 min and 54.6 min, respectively. Besides, the Tmax in the data set “in vivo [10]” was 30 min.
